# Results reported in PubChem BioAssay AID1259411 (Chemical Carcinogenesis Research Information System (CCRIS), 2018).
# Active and inactive are the calls of the source. The rule behind the calls is not given here.
# Tested on: rodent carcinogenicity bioassays, tumor incidence
# Assay: CCRIS carcinogenicity studies
# How it was run: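 NCI-built, expert-reviewed records of carcinogenicity and related test outcomes (mutagenicity, tumor promotion/inhibition) compiled from published and report sources, historical span 1985-2011, not updated.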
compound,measurement,setting,value
[K+],carcinogen call,"Species: RAT, Strain/Sex: F344/FEMALE, Route: ORAL, Dose: 0, 10, 100, 1000 PPM IN DRINKING WATER FOR 2 YR (STUDY DURATION: 2 YR), Dose: 0, 10, 100, 1000 PPM IN DRINKING WATER FOR 2 YR (STUDY DURATION: 2 YR), Tumor Site: Type of Lesion: SALIVARY GLAND: SQUAMOUS CELL CARCINOMA",active; positive
same,carcinogen call,"Species: RAT, Strain/Sex: F344/MALE, Route: ORAL, Dose: 0, 10, 100, 1000 PPM IN DRINKING WATER FOR 2 YR (STUDY DURATION: 2 YR), Dose: 0, 10, 100, 1000 PPM IN DRINKING WATER FOR 2 YR (STUDY DURATION: 2 YR), Tumor Site: Type of Lesion: SALIVARY GLAND: SQUAMOUS CELL CARCINOMA",active; positive
CCNC(=O)[C@@H]1CCCN1C(=O)[C@H](CCCN=C(N)N)NC(=O)[C@H](CC(C)C)NC(=O)[C@@H](COC(C)(C)C)NC(=O)[C@H](Cc1ccc(O)cc1)NC(=O)[C@H](CO)NC(=O)[C@H](Cc1c[nH]c2ccccc12)NC(=O)[C@H](Cc1cnc[nH]1)NC(=O)[C@@H]1CCC(=O)N1,carcinogen call,"Species: RAT, Strain/Sex: WISTAR/FEMALE, Route: SUBCUTANEOUS, Dose: 0, 0.0002, 0.0006, 0.0018 MG/KG 1/D FOR 24 MO (STUDY DURATION: 30 MO), Dose: 0, 0.0002, 0.0006, 0.0018 MG/KG 1/D FOR 24 MO (STUDY DURATION: 30 MO)",inactive; negative
same,carcinogen call,"Species: RAT, Strain/Sex: WISTAR/MALE, Route: SUBCUTANEOUS, Dose: 0, 0.0002, 0.0006, 0.0018 MG/KG 1/D FOR 24 MO (STUDY DURATION: 30 MO), Dose: 0, 0.0002, 0.0006, 0.0018 MG/KG 1/D FOR 24 MO (STUDY DURATION: 30 MO)",inactive; negative
[As],carcinogen call,"Species: HUMAN, Route: INHALATION, ORAL, Tumor Site: Type of Lesion: LUNG, INTEGUMENTARY SYSTEM (SKIN)",active; positive
O=NN1CCC(=O)CC1,carcinogen call,"Species: RAT, Strain/Sex: F344/FEMALE, Route: ORAL, Dose: 0, 80 ML OF SOLUTION OF 115 MG/L IN NEUTRAL DEIONIZED DRINKING WATER 5 D/WK FOR 30 WK (STUDY DURATION: 60 WK), Tumor Site: Type of Lesion: NASAL CAVITY: ESTHESIONEUROEPITHELIOMA, FORESTOMACH: TUMOR, ESOPHAGUS: TUMOR, TONGUE: TUMOR, LIVER: HEPATOCELLULAR CARCI, Tumor Site: Type of Lesion: NASAL CAVITY: ESTHESIONEUROEPITHELIOMA, FORESTOMACH: TUMOR, ESOPHAGUS: TUMOR, TONGUE: TUMOR, LIVER: HEPATOCELLULAR CARCI",active; positive
c1ccc(C2CO2)cc1 (stereo unspecified),carcinogen call,"Species: MOUSE, Strain/Sex: B6C3F1/FEMALE, Route: GAVAGE, Dose: 0, 375, 750 MG/KG IN CORN OIL 3 D/WK FOR UP TO 104 WK (STUDY DURATION: 24 MO), Dose: 0, 375, 750 MG/KG IN CORN OIL 3 D/WK FOR UP TO 104 WK (STUDY DURATION: 24 MO), Tumor Site: Type of Lesion: FORESTOMACH: PAPILLOMA, CARCINOMA",active; positive
same,carcinogen call,"Species: MOUSE, Strain/Sex: B6C3F1/MALE, Route: GAVAGE, Dose: 0, 375, 750 MG/KG IN CORN OIL 3 D/WK FOR UP TO 104 WK (STUDY DURATION: 24 MO), Dose: 0, 375, 750 MG/KG IN CORN OIL 3 D/WK FOR UP TO 104 WK (STUDY DURATION: 24 MO), Tumor Site: Type of Lesion: LIVER: CARCINOMA OR ADENOMA, FORESTOMACH: PAPILLOMA, CARCINOMA",active; positive
same,carcinogen call,"Species: RAT, Strain/Sex: BDIV/FEMALE, Route: GAVAGE, Dose: 0, 100-150 MG/KG IN OLIVE OIL 1/WK FOR 96 WK ADMINISTERED TO OFFSPRING OF FEMALE RATS GIVEN 200 MG/KG ONCE ON DAY 17 OF, Tumor Site: Type of Lesion: FORESTOMACH: CARCINOMA IN SITU, CARCINOMA",active; positive
same,carcinogen call,"Species: RAT, Strain/Sex: BDIV/FEMALE, Route: GAVAGE, Dose: 0, 200 MG/KG ONCE IN OLIVE OIL ON DAY 17 OF PREGNANCY (STUDY DURATION: 120 WK)",inactive; negative
same,carcinogen call,"Species: RAT, Strain/Sex: BDIV/MALE, Route: GAVAGE, Dose: 0, 100-150 MG/KG IN OLIVE OIL 1/WK FOR 96 WK ADMINISTERED TO OFFSPRING OF FEMALE RATS GIVEN 200 MG/KG ONCE ON DAY 17 OF, Tumor Site: Type of Lesion: FORESTOMACH: PAPILLOMA, CARCINOMA IN SITU, CARCINOMA",active; positive
same,carcinogen call,"Species: RAT, Strain/Sex: F344/FEMALE, Route: GAVAGE, Dose: 0, 275, 550 MG/KG IN CORN OIL 3 D/WK FOR 104 WK (STUDY DURATION: 24 MO), Dose: 0, 275, 550 MG/KG IN CORN OIL 3 D/WK FOR 104 WK (STUDY DURATION: 24 MO), Tumor Site: Type of Lesion: FORESTOMACH: PAPILLOMA, SQUAMOUS CELL CARCINOMA",active; positive
same,carcinogen call,"Species: RAT, Strain/Sex: F344/MALE, Route: GAVAGE, Dose: 0, 275, 550 MG/KG IN CORN OIL 3 D/WK FOR 104 WK (STUDY DURATION: 24 MO), Dose: 0, 275, 550 MG/KG IN CORN OIL 3 D/WK FOR 104 WK (STUDY DURATION: 24 MO), Tumor Site: Type of Lesion: FORESTOMACH: PAPILLOMA, SQUAMOUS CELL CARCINOMA",active; positive
same,carcinogen call,"Species: RAT, Strain/Sex: SPRAGUE-DAWLEY/FEMALE, Route: GAVAGE, Dose: 0, 50, 250 MG/KG BW IN OLIVE OIL 1/D 4-5 D/WK FOR 52 WK (STUDY DURATION: LIFETIME), Dose: 0, 50, 250 MG/KG BW IN OLIVE OIL 1/D 4-5 D/WK FOR 52 WK (STUDY DURATION: LIFETIME), Tumor Site: Type of Lesion: [BRAIN WAS ONLY SITE EVALUATED]",inactive; negative
same,carcinogen call,"Species: RAT, Strain/Sex: SPRAGUE-DAWLEY/FEMALE, Route: INTRAGASTRIC, Dose: 0, 50, 250 MG/KG IN OLIVE OIL 1/D, 4-5 D/WK FOR 52 WK (STUDY DURATION: LIFESPAN, Dose: 0, 50, 250 MG/KG IN OLIVE OIL 1/D, 4-5 D/WK FOR 52 WK (STUDY DURATION: LIFESPAN, Tumor Site: Type of Lesion: FORESTOMACH: PAPILLOMA OR ACANTHOMA, SQUAMOUS CELL CARCINOMA",active; positive
same,carcinogen call,"Species: RAT, Strain/Sex: SPRAGUE-DAWLEY/MALE, Route: GAVAGE, Dose: 0, 50, 250 MG/KG BW IN OLIVE OIL 1/D 4-5 D/WK FOR 52 WK (STUDY DURATION: LIFETIME), Dose: 0, 50, 250 MG/KG BW IN OLIVE OIL 1/D 4-5 D/WK FOR 52 WK (STUDY DURATION: LIFETIME), Tumor Site: Type of Lesion: [BRAIN WAS ONLY SITE EVALUATED]",inactive; negative
same,carcinogen call,"Species: RAT, Strain/Sex: SPRAGUE-DAWLEY/MALE, Route: INTRAGASTRIC, Dose: 0, 50, 250 MG/KG IN OLIVE OIL 1/D, 4-5 D/WK FOR 52 WK (STUDY DURATION: LIFESPAN, Dose: 0, 50, 250 MG/KG IN OLIVE OIL 1/D, 4-5 D/WK FOR 52 WK (STUDY DURATION: LIFESPAN, Tumor Site: Type of Lesion: FORESTOMACH: PAPILLOMA OR ACANTHOMA, SQUAMOUS CELL CARCINOMA",active; positive
Cc1ccc(S(=O)(=O)O)cc1C,carcinogen call,"Species: MOUSE, Strain/Sex: B6C3F1/FEMALE, Route: DERMAL, Dose: 0, 182, 364, 727 MG/KG IN 50% ETHANOL 5D/WK FOR 105 WK (STUDY DURATION: 105 WK), Dose: 0, 182, 364, 727 MG/KG IN 50% ETHANOL 5D/WK FOR 105 WK (STUDY DURATION: 105 WK)",inactive; negative
same,carcinogen call,"Species: MOUSE, Strain/Sex: B6C3F1/MALE, Route: DERMAL, Dose: 0, 182, 364, 727 MG/KG IN 50% ETHANOL 5D/WK FOR 104 WK (STUDY DURATION: 104 WK), Dose: 0, 182, 364, 727 MG/KG IN 50% ETHANOL 5D/WK FOR 104 WK (STUDY DURATION: 104 WK)",inactive; negative
same,carcinogen call,"Species: RAT, Strain/Sex: F344/FEMALE, Route: DERMAL, Dose: 0, 60, 120, 240 MG/KG IN 50% ETHANOL 5 D/WK FOR 104 WK (STUDY DURATION: 104 WK), Dose: 0, 60, 120, 240 MG/KG IN 50% ETHANOL 5 D/WK FOR 104 WK (STUDY DURATION: 104 WK)",inactive; negative
same,carcinogen call,"Species: RAT, Strain/Sex: F344/MALE, Route: DERMAL, Dose: 0, 60, 120, 240 MG/KG IN 50% ETHANOL 5D/WK FOR 104 WK (STUDY DURATION: 104 WK), Dose: 0, 60, 120, 240 MG/KG IN 50% ETHANOL 5D/WK FOR 104 WK (STUDY DURATION: 104 WK)",inactive; negative
